Data as given in US12565458B2, “Granulated agricultural composition comprising macro- and micronutrients, and related methods” (YPF SOCIEDAD ANÓNIMA, priority 2021, dated 2026).

System: wheat
Assay: Field experiment 2, Zn impregnation on urea, wheat 2018 (Example 5)
Format: in vivo, wheat (SY 120)
Design: WG (weight of grains): unit not given here

## NC(N)=O [Urea 200]
Wheat grain yield, Pergamino 2018
  Yield: 5136.4 kg ha^−1
wheat, Z25, Pergamino 2018
  Dry M Z25 (initial dry matter): 2450.0
wheat, Z65, Pergamino 2018
  Coverage and Intercep. Z65: 91.7
  NDVI GS 65 (Green seeker): 0.40
  Plant height: 75.0 cm
  Spad Z65 (green intensity): 40.8 Spad units
wheat, Z65, index 1 minimum 5 maximum
  Vigor Z65 (1-5): 3.9
wheat, Zn impregnation on Urea, Pergamino 2018
  Plants m^−2 (number of emerged plants): 239.0 m^−2
wheat, harvest, Pergamino 2018
  NG m^−2 (number of grains): 16410.1 m^−2
  WG (weight of grains): 31.3
